The experiment deals with MV-4-11 cells. Kind of experiment: Gene expression microarray analysis (Affymetrix PrimeView) and GSEA. In kind it is cell-based, human. The arrangement: RFU PODN (11730768_x_at) / Fold change /veh PODN (11730768_x_at) / RFU LINC00158 (11744669_a_at) / Fold change /veh LINC00158 (11744669_a_at) / RFU DUSP10 (11751237_a_at) / Fold change /veh DUSP10 (11751237_a_at) / RFU ID3 (11757404_x_at) / Fold change /veh ID3 (11757404_x_at) / RFU PLEKHG5 (11737974_s_at) / Fold change /veh PLEKHG5 (11737974_s_at) / RFU LRRC4B (11730491_at) / Fold change /veh LRRC4B (11730491_at) / RFU GIMAP4 (11747438_a_at) / Fold change /veh GIMAP4 (11747438_a_at) / RFU KRT8 (11758183_x_at) / Fold change /veh KRT8 (11758183_x_at) / RFU CNN1 (11734310_a_at) / Fold change /veh CNN1 (11734310_a_at) / RFU VPS37D (11726825_at) / Fold change /veh VPS37D (11726825_at) / RFU C10orf10 (11716522_x_at) / Fold change /veh C10orf10 (11716522_x_at) / RFU KIR2DL2 /// KIR2DL4 /// KIR2DL5A /// KIR2DL5B /// KIR2DS1 /// KIR2DS2 /// KIR2DS3 /// KIR2DS4 /// KIR3DL3 /// KIR3DL3 /// KIR3DS1 (11738374_at) / Fold change /veh KIR2DL2 /// KIR2DL4 /// KIR2DL5A /// KIR2DL5B /// KIR2DS1 /// KIR2DS2 /// KIR2DS3 /// KIR2DS4 /// KIR3DL3 /// KIR3DL3 /// KIR3DS1 (11738374_at) / RFU C1QL1 (11718748_at) / Fold change /veh C1QL1 (11718748_at) / RFU TMPRSS4 (11747572_a_at) / Fold change /veh TMPRSS4 (11747572_a_at) / RFU HAMP (11756126_x_at) / Fold change /veh HAMP (11756126_x_at) / RFU RNFT2 (11725882_a_at) / Fold change /veh RNFT2 (11725882_a_at) / RFU NR4A2 (11747474_a_at) / Fold change /veh NR4A2 (11747474_a_at) / RFU ABCC12 (11746883_a_at) / Fold change /veh ABCC12 (11746883_a_at) / RFU TMEM136 (11760407_x_at) / Fold change /veh TMEM136 (11760407_x_at) / RFU CLDN22 /// WWC2 (11732394_at) / Fold change /veh CLDN22 /// WWC2 (11732394_at) / RFU HLA-DPB1 (11760878_x_at) / Fold change /veh HLA-DPB1 (11760878_x_at) / RFU SPINT1 (11716480_a_at) / Fold change /veh SPINT1 (11716480_a_at) / RFU GAP43 (11754022_s_at) / Fold change /veh GAP43 (11754022_s_at) / RFU A4GNT (11735810_at) / Fold change /veh A4GNT (11735810_at) / RFU PRB3 (11715151_x_at) / Fold change /veh PRB3 (11715151_x_at) / RFU TUBB4B (11761932_at) / Fold change /veh TUBB4B (11761932_at) / RFU CAPN14 (11732068_a_at) / Fold change /veh CAPN14 (11732068_a_at) / RFU TMCC2 (11721928_a_at) / Fold change /veh TMCC2 (11721928_a_at) / RFU IRGQ (11745062_a_at) / Fold change /veh IRGQ (11745062_a_at) / RFU FAM174B (11720279_a_at) / Fold change /veh FAM174B (11720279_a_at) / RFU TMPRSS4 (11748680_a_at) / Fold change /veh TMPRSS4 (11748680_a_at) / RFU FAM212B (11763350_a_at) / Fold change /veh FAM212B (11763350_a_at) / RFU PLEKHG5 (11743358_a_at) / Fold change /veh PLEKHG5 (11743358_a_at) / RFU ZSCAN30 (11745921_a_at) / Fold change /veh ZSCAN30 (11745921_a_at) / RFU CMKLR1 (11741424_a_at) / Fold change /veh CMKLR1 (11741424_a_at) / RFU LOC101060620 /// MAPK8IP1 (11723275_at) / Fold change /veh LOC101060620 /// MAPK8IP1 (11723275_at) / RFU SPTSSB (11747773_x_at) / Fold change /veh SPTSSB (11747773_x_at) / RFU PRSS12 (11739890_at) / Fold change /veh PRSS12 (11739890_at) / RFU BIN1 (11741810_x_at) / Fold change /veh BIN1 (11741810_x_at) / RFU WNT11 (11732464_a_at) / Fold change /veh WNT11 (11732464_a_at) / RFU C10orf10 (11716521_a_at) / Fold change /veh C10orf10 (11716521_a_at) / RFU C5orf56 (11738089_at) / Fold change /veh C5orf56 (11738089_at) / RFU CYB561 (11721691_x_at) / Fold change /veh CYB561 (11721691_x_at) / RFU ANKRD19P (11752326_a_at) / Fold change /veh ANKRD19P (11752326_a_at) / RFU OR2T12 /// OR2T33 /// OR2T8 (11738714_s_at) / Fold change /veh OR2T12 /// OR2T33 /// OR2T8 (11738714_s_at) / RFU VCAN (11748164_a_at) / Fold change /veh VCAN (11748164_a_at) / RFU JSRP1 (11732532_at) / Fold change /veh JSRP1 (11732532_at) / RFU KRTAP10-11 (11738290_x_at) / Fold change /veh KRTAP10-11 (11738290_x_at) / RFU MYO3A (11730013_a_at) / Fold change /veh MYO3A (11730013_a_at) / RFU EBF3 (11725865_a_at) / Fold change /veh EBF3 (11725865_a_at) / RFU CAMK2N1 (11719241_x_at) / Fold change /veh CAMK2N1 (11719241_x_at) / RFU C5orf56 (11738088_a_at) / Fold change /veh C5orf56 (11738088_a_at) / RFU OLFML3 (11715873_a_at) / Fold change /veh OLFML3 (11715873_a_at) / RFU LOC100653217 /// NTM (11731650_a_at) / Fold change /veh LOC100653217 /// NTM (11731650_a_at) / RFU MAPK11 (11762145_a_at) / Fold change /veh MAPK11 (11762145_a_at) / RFU FIZ1 (11724087_x_at) / Fold change /veh FIZ1 (11724087_x_at) / RFU OASL (11726364_x_at) / Fold change /veh OASL (11726364_x_at) / RFU SOX15 (11748057_x_at) / Fold change /veh SOX15 (11748057_x_at) / RFU CD79A (11719716_a_at) / Fold change /veh CD79A (11719716_a_at) / RFU HIST1H1D (11736915_at) / Fold change /veh HIST1H1D (11736915_at) / RFU CASKIN2 (11723855_a_at) / Fold change /veh CASKIN2 (11723855_a_at) / RFU LOC730098 (11760151_x_at) / Fold change /veh LOC730098 (11760151_x_at) / RFU OR4N2 (11742367_at) / Fold change /veh OR4N2 (11742367_at) / RFU PRRT2 (11749266_a_at) / Fold change /veh PRRT2 (11749266_a_at) / RFU SNX32 (11753110_a_at) / Fold change /veh SNX32 (11753110_a_at) / RFU CDHR5 (11726645_a_at) / Fold change /veh CDHR5 (11726645_a_at) / RFU RCAN1 (11760418_a_at) / Fold change /veh RCAN1 (11760418_a_at) / RFU FAM167A (11723789_a_at) / Fold change /veh FAM167A (11723789_a_at) / RFU FAM26E (11764081_at) / Fold change /veh FAM26E (11764081_at) / RFU ISYNA1 (11749810_s_at) / Fold change /veh ISYNA1 (11749810_s_at) / RFU ACY1 (11761880_at) / Fold change /veh ACY1 (11761880_at) / RFU 11764098_at / Fold change /veh 11764098_at / RFU SAMD14 (11745864_x_at) / Fold change /veh SAMD14 (11745864_x_at) / RFU NPB (11741838_a_at) / Fold change /veh NPB (11741838_a_at) / RFU TMPRSS6 (11731388_a_at) / Fold change /veh TMPRSS6 (11731388_a_at) / RFU KRTAP10-2 (11738614_at) / Fold change /veh KRTAP10-2 (11738614_at) / RFU ARHGAP8 /// PRR5-ARHGAP8 (11727945_x_at) / Fold change /veh ARHGAP8 /// PRR5-ARHGAP8 (11727945_x_at) / RFU KRTAP5-7 /// NADSYN1 (11734609_at) / Fold change /veh KRTAP5-7 /// NADSYN1 (11734609_at) / RFU RASL12 (11751679_a_at) / Fold change /veh RASL12 (11751679_a_at) / RFU CDKN2B (11736163_a_at) / Fold change /veh CDKN2B (11736163_a_at) / RFU PRF1 (11729649_at) / Fold change /veh PRF1 (11729649_at) / RFU, ZNF638 /// ZNF638-IT1 / Fold change vs veh, ZNF638 /// ZNF638-IT1 / RFU, PANK3 / Fold change vs veh, PANK3 / RFU, SH3YL1 / Fold change vs veh, SH3YL1 / RFU, ZEB2 / Fold change vs veh, ZEB2 / RFU, NRIP1 / Fold change vs veh, NRIP1 / RFU, PTTG1IP / Fold change vs veh, PTTG1IP / RFU, CAPN2 / Fold change vs veh, CAPN2 / RFU, MED14 / Fold change vs veh, MED14 / RFU, SNORA58 / Fold change vs veh, SNORA58 / RFU, C1orf63 / Fold change vs veh, C1orf63 / RFU, LRRFIP1 / Fold change vs veh, LRRFIP1 / RFU, NDUFAF7 / Fold change vs veh, NDUFAF7 / RFU, SLC12A2 / Fold change vs veh, SLC12A2 / RFU, IBTK / Fold change vs veh, IBTK / RFU, ESF1 / Fold change vs veh, ESF1 / Fold change vs veh, TMEM50B / RFU, TAOK1 / Fold change vs veh, TAOK1 / RFU, ACBD3 / Fold change vs veh, ACBD3 / RFU, TMA16 / Fold change vs veh, TMA16 / RFU, RWDD3 / Fold change vs veh, RWDD3 / RFU, BCAT1 / Fold change vs veh, BCAT1 / RFU, EDEM3 / Fold change vs veh, EDEM3 / RFU, TMEM33 / Fold change vs veh, TMEM33 / RFU, WDR75 / Fold change vs veh, WDR75 / RFU, AHCTF1 / Fold change vs veh, AHCTF1 / RFU, TFRC / Fold change vs veh, TFRC / RFU, ZDHHC17 / Fold change vs veh, ZDHHC17 / RFU, NOM1 / Fold change vs veh, NOM1 / RFU, ARL8B / Fold change vs veh, ARL8B / RFU, ZBTB11 / Fold change vs veh, ZBTB11 / RFU, TAMM41 / Fold change vs veh, TAMM41 / RFU, KIAA1704 /// LOC100996395 / Fold change vs veh, KIAA1704 /// LOC100996395 / RFU, ING1 / Fold change vs veh, ING1 / RFU, TRMT61B / Fold change vs veh, TRMT61B / RFU, FUBP3 / Fold change vs veh, FUBP3 / RFU, TP53 / Fold change vs veh, TP53 / RFU, TNKS2 / Fold change vs veh, TNKS2 / RFU, ZFP14 / Fold change vs veh, ZFP14 / RFU, ACTR2 / Fold change vs veh, ACTR2 / RFU, PPP3R1 / Fold change vs veh, PPP3R1 / RFU, PIK3R1 / Fold change vs veh, PIK3R1 / RFU, HNRNPA1 / Fold change vs veh, HNRNPA1 / RFU, RNF170 / Fold change vs veh, RNF170 / RFU, ZNF28 / Fold change vs veh, ZNF28 / RFU, RNGTT / Fold change vs veh, RNGTT / RFU, OGT / Fold change vs veh, OGT / RFU, BRD1 / Fold change vs veh, BRD1 / RFU, MARS / Fold change vs veh, MARS / RFU, ZNF655 / Fold change vs veh, ZNF655 / RFU, FAHD1 / Fold change vs veh, FAHD1 / RFU, BDP1 / Fold change vs veh, BDP1 / RFU, LRRCC1 / Fold change vs veh, LRRCC1 / RFU, ARID1A / Fold change vs veh, ARID1A / RFU, ZNF146 / Fold change vs veh, ZNF146 / RFU, ZNF330 / Fold change vs veh, ZNF330 / RFU, GPN3 / Fold change vs veh, GPN3 / RFU, C9orf123 / Fold change vs veh, C9orf123 / RFU, N4BP2L2 / Fold change vs veh, N4BP2L2 / RFU, ARFIP1 / Fold change vs veh, ARFIP1 / RFU, FAM179B / Fold change vs veh, FAM179B / RFU, BCL10 / Fold change vs veh, BCL10 / RFU, UHRF1BP1L / Fold change vs veh, UHRF1BP1L / RFU, BET1 / Fold change vs veh, BET1 / RFU, CNOT2 / Fold change vs veh, CNOT2 / RFU, ZNF268 / Fold change vs veh, ZNF268 / Fold change vs veh, ZNF507 / RFU, DGCR2 / Fold change vs veh, DGCR2 / RFU, WDSUB1 / Fold change vs veh, WDSUB1 / Fold change vs veh, HSP90B1 /// MIR3652 / RFU, ADSS / Fold change vs veh, ADSS / RFU, GK / Fold change vs veh, GK / RFU, ZNF148 / Fold change vs veh, ZNF148 / RFU, TAF9 / Fold change vs veh, TAF9 / RFU, SLC1A5 / Fold change vs veh, SLC1A5 / RFU, SLMO2 / Fold change vs veh, SLMO2 / RFU, ABCC4 / Fold change vs veh, ABCC4 / RFU, LOC101060439 /// RAP1B / Fold change vs veh, LOC101060439 /// RAP1B / RFU, RFX7 / Fold change vs veh, RFX7 / RFU, GTPBP10 / Fold change vs veh, GTPBP10 / RFU, CNEP1R1 / Fold change vs veh, CNEP1R1 / RFU, BIVM-ERCC5 /// ERCC5 / Fold change vs veh, BIVM-ERCC5 /// ERCC5 / RFU, ILF3 / Fold change vs veh, ILF3 / RFU 11762660_at / Fold change /veh 11762660_at / RFU VCAN (11757783_s_at) / Fold change /veh VCAN (11757783_s_at) / RFU DDX43 (11728927_at) / Fold change /veh DDX43 (11728927_at) / RFU KRT8 (11758188_x_at) / Fold change /veh KRT8 (11758188_x_at) / RFU NKD1 (11759106_at) / Fold change /veh NKD1 (11759106_at) / RFU SRD5A1 (11742802_a_at) / Fold change /veh SRD5A1 (11742802_a_at) / RFU TPSAB1 /// TPSB2 (11721975_s_at) / Fold change /veh TPSAB1 /// TPSB2 (11721975_s_at) / RFU GSTM3 (11746129_a_at) / Fold change /veh GSTM3 (11746129_a_at) / RFU IL23R (11737362_x_at) / Fold change /veh IL23R (11737362_x_at) / RFU TMEM51 (11727254_a_at) / Fold change /veh TMEM51 (11727254_a_at) / RFU PIWIL2 (11732686_x_at) / Fold change /veh PIWIL2 (11732686_x_at) / RFU ORM1 (11744905_x_at) / Fold change /veh ORM1 (11744905_x_at) / RFU CCDC152 (11743942_at) / Fold change /veh CCDC152 (11743942_at) / RFU ECM1 (11717891_a_at) / Fold change /veh ECM1 (11717891_a_at) / RFU IL23R (11748794_a_at) / Fold change /veh IL23R (11748794_a_at) / RFU TNFAIP8L3 (11732012_x_at) / Fold change /veh TNFAIP8L3 (11732012_x_at) / RFU MBOAT4 (11741988_at) / Fold change /veh MBOAT4 (11741988_at) / RFU 11764193_at / Fold change /veh 11764193_at / RFU TMEM53 (11763286_at) / Fold change /veh TMEM53 (11763286_at) / RFU MAGEB2 (11727129_at) / Fold change /veh MAGEB2 (11727129_at) / RFU TMEM200A (11744735_a_at) / Fold change /veh TMEM200A (11744735_a_at) / RFU CCDC152 (11751479_a_at) / Fold change /veh CCDC152 (11751479_a_at) / RFU FAM211A (11726209_a_at) / Fold change /veh FAM211A (11726209_a_at) / RFU RGS16 (11746705_a_at) / Fold change /veh RGS16 (11746705_a_at) / RFU VCAN (11755009_s_at) / Fold change /veh VCAN (11755009_s_at) / RFU RHOB (11743442_s_at) / Fold change /veh RHOB (11743442_s_at) / RFU RGS16 (11720943_a_at) / Fold change /veh RGS16 (11720943_a_at) / RFU RGS16 (11720944_at) / Fold change /veh RGS16 (11720944_at) / RFU, VPS4B / Fold change vs veh, VPS4B / RFU, CREB1 / Fold change vs veh, CREB1 / RFU, DNAJC13 / Fold change vs veh, DNAJC13 / RFU, GNAQ / Fold change vs veh, GNAQ / RFU, CDK5R1 / Fold change vs veh, CDK5R1 / RFU, ZRANB3 / Fold change vs veh, ZRANB3 / RFU, CUL4A / Fold change vs veh, CUL4A / RFU, CCNY / Fold change vs veh, CCNY / RFU, UFL1 / Fold change vs veh, UFL1 / RFU, COG3 / Fold change vs veh, COG3 / RFU, DIAPH2 / Fold change vs veh, DIAPH2 / RFU, SKA2 / Fold change vs veh, SKA2 / RFU, AFF3 / Fold change vs veh, AFF3 / RFU, LMF1 / Fold change vs veh, LMF1 / RFU, IPO11 / Fold change vs veh, IPO11 / RFU, DFFB / Fold change vs veh, DFFB / RFU, FOXP1 / Fold change vs veh, FOXP1 / RFU, CARD8 / Fold change vs veh, CARD8 / RFU, STRN3 / Fold change vs veh, STRN3 / RFU, ADK / Fold change vs veh, ADK / RFU, RASSF2 / Fold change vs veh, RASSF2 / RFU, WIPF1 / Fold change vs veh, WIPF1 / RFU, LARP1B / Fold change vs veh, LARP1B / RFU, RASA1 / Fold change vs veh, RASA1 / RFU, RB1 / Fold change vs veh, RB1 / RFU, PPFIA1 / Fold change vs veh, PPFIA1 / RFU, MAT2A / Fold change vs veh, MAT2A / RFU, CCT5 / Fold change vs veh, CCT5 / RFU, WDR92 / Fold change vs veh, WDR92 / RFU, CUX1 / Fold change vs veh, CUX1 / RFU, TTC7A / Fold change vs veh, TTC7A / RFU, TMEM135 / Fold change vs veh, TMEM135 / RFU, DEPTOR / Fold change vs veh, DEPTOR / RFU, CPM / Fold change vs veh, CPM / RFU, DNAJB6 / Fold change vs veh, DNAJB6 / RFU, CACNA2D3 / Fold change vs veh, CACNA2D3 / RFU, DTX4 / Fold change vs veh, DTX4 / RFU, TFCP2 / Fold change vs veh, TFCP2 / RFU, GMCL1 /// GMCL1P1 / Fold change vs veh, GMCL1 /// GMCL1P1 / RFU, AEBP2 / Fold change vs veh, AEBP2 / RFU, SNHG1 /// SNORD22 /// SNORD25 /// SNORD26 /// SNORD27 /// SNORD28 /// SNORD29 /// SNORD31 / Fold change vs veh, SNHG1 /// SNORD22 /// SNORD25 /// SNORD26 /// SNORD27 /// SNORD28 /// SNORD29 /// SNORD31 / Fold change (Aza/veh), C12orf56 (ProbeSet 11735607_a_at) / Fold change (ACY-1035/veh), C12orf56 (ProbeSet 11735607_a_at) / Fold change (Aza/veh), FGFR1OP (ProbeSet 11751329_s_at) / Fold change (ACY-1035/veh), FGFR1OP (ProbeSet 11751329_s_at) / Fold change (Aza/veh), VPS36 (ProbeSet 11739960_a_at) / Fold change (ACY-1035/veh), VPS36 (ProbeSet 11739960_a_at) / RFU SYPL1 (11715823_x_at) / Fold change /veh SYPL1 (11715823_x_at) / RFU IGFBP7 (11715501_s_at) / Fold change /veh IGFBP7 (11715501_s_at) / RFU REEP3 (11722064_at) / Fold change /veh REEP3 (11722064_at) / RFU IGLL1 (11728026_x_at) / Fold change /veh IGLL1 (11728026_x_at): dose or concentration left out as unconfirmed. The settings on record: ProbeSet 11755070_a_at; LIST D.

Regarding `Nc1ncn([C@@H]2O[C@H](CO)[C@@H](O)[C@H]2O)c(=O)n1` [azacitidine], the “Fold change vs veh, CARD8” value came to 0.80.

For the origin of these results see article PMC5218480 (PLoS ONE, 2017).
